Assay results as given in patent US7867749B2, “Nematode phosphoethanolamine N-methyltransferase-like sequences” (priority 2006, dated 2011).
Read-outs that look alike come from different tables or passages of the source.

Columns and labels:
[1] = system: A. ellesmerensis; assay: Nematicidal activity against other nematodes; format: in vivo, Acrobiloides ellesmerensis
[2] = system: C. elegans; assay: Nematicidal activity of ethanolamine-like compounds against C. elegans; format: in vivo, Caenorhabditis elegans; conditions: P0 L4 larva; for F1 PHENOTYPE: 23° C.; for nematicidal activity against C. elegans: various concentrations
[3] = system: Cephalobus sp.; assay: Nematicidal activity against other nematodes; format: in vivo
[4] = system: M. incognita; format: in vivo, Meloidogyne incongnita; conditions: J2 larvae soaked 48 hours
Experimental: (§1) The ethanolamine-like compounds mentioned above are also nematicidal against the plant parasites Meloidogyne incongnita and Meloidogyne javanica. Between 25 and 50 J2 stage larvae were soaked in the compounds for 48 hours at the indicated concentrations. After the treatment, the larvae were moved to an agar plate containing NGM. Worms that crawl away from the application spot are scored as alive while those that remain at the application spot are scored as dead. The three compounds that were nematicidal against C. elegans were also nematicidal against M. incognita and M. javanica

[5] = system: M. javanica; assay: Nematicidal activity against plant parasites, J2 larvae soak; format: in vivo, Meloidogyne javanica; conditions: 15 mM; J2 larvae soaked 48 hours
Experimental: as §1

[6] = system: C. elegans; assay: Chemical rescue of the PEAMT2 RNAi-generated phenotype (feeding); format: in vivo, Caenorhabditis elegans; conditions: for rescue of PEAMT2 RNAi phenotype: chemical complementation, singly or in combination, concentration not given
[7] = system: C. elegans; assay: Chemical rescue of the PEAMT1 RNAi-generated phenotype (feeding); format: in vivo, Caenorhabditis elegans; conditions: for rescue of PEAMT1 mutants (RNAi-generated): 5 mM; for suppression of PEAMT1 larval lethal RNAi phenotype: chemical complementation, concentration not given
[8] = target: T1, C. elegans PEAMT2 (DIV3202) (Caenorhabditis elegans, UniProt Q22993); assay: Km determination, radiochemical PEAMT assay; format: biochemical; conditions: 118 nM DIV3202H+
T1 sequence (Q22993 1-437): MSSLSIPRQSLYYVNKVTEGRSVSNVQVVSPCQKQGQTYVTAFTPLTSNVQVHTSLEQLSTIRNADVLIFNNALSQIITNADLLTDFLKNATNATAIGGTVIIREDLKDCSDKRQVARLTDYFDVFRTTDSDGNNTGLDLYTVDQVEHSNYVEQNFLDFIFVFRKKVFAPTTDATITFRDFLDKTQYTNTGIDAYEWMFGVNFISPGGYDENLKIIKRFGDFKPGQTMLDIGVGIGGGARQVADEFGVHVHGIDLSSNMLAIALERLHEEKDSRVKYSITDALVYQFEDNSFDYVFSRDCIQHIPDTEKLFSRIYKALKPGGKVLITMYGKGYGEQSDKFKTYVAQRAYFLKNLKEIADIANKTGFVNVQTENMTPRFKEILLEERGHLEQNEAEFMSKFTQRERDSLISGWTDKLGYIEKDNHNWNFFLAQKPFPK

[9] = system: isolated intestinal epithelial cells; conditions: cited from earlier work
[10] = system: everted hamster jejunal and ileal segments; conditions: cited from earlier work
[11] = target: T2, C. elegans PEAMT1 (DIV3441) (Caenorhabditis elegans, UniProt Q23552); assay: Km determination, radiochemical PEAMT assay; format: biochemical
T2 construct: HIS tag (pET28a) (N); made in house; host or cells: bacterial culture, IPTG-induced pET28a
T2 sequence (Q23552 1-475): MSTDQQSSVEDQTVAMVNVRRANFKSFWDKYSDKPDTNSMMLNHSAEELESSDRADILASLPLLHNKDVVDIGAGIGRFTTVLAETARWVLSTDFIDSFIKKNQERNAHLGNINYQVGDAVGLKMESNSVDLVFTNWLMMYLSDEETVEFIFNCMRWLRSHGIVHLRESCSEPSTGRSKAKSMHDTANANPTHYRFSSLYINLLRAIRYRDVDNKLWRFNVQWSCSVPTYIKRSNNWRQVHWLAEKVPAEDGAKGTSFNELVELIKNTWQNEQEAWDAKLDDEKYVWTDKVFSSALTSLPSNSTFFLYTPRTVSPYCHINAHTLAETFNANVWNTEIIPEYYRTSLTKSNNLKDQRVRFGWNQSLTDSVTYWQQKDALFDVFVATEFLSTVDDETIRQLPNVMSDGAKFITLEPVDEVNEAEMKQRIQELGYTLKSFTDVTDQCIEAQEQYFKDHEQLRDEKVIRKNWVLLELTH

[12] = P0 L4, 5 or 10 mM in plate media

SMILES: CC(C)(C)NCCO [2-(tert-butylamino)ethanol]
- F1 PHENOTYPE ([1]; 10 mM): L1/L2 arrest/lethality
- F1 PHENOTYPE ([2]; 10 mM): L1/L2 arrest/lethality
- nematicidal activity against C. elegans [2]: showed nematicidal activity
- F1 PHENOTYPE ([3]; 10 mM): L1/L2 arrest/lethality
- % DEAD WORMS ([4]; 5 mM): 50%
- % DEAD WORMS [5]: 50%

SMILES: NCC(O)c1ccccc1 (stereo not drawn) [2-amino-1-phenylethanol]
- F1 PHENOTYPE ([2]; 25 mM): Wild-type development
- nematicidal activity against C. elegans [2]: no nematicidal effect

SMILES: N[C@@H](CO)Cc1ccccc1 [D-phenylalaninol]
- F1 PHENOTYPE ([1]; 12.5 mM): L1/L2 arrest/lethality
- F1 PHENOTYPE ([2]; 10 mM): L1/L2 arrest/lethality
- nematicidal activity against C. elegans [2]: showed nematicidal activity
- F1 PHENOTYPE ([3]; 12.5 mM): L1/L2 arrest/lethality
- % DEAD WORMS ([4]; 25 mM): 100%

SMILES: CN(C)CCO [DME, dimethylethanolamine]
- F1 phenotype, PEAMT2 dsRNA ([6]; P0 Dauer, 10 mM in plate media): Sterility
- F1 phenotype, PEAMT2 dsRNA ([6]; P0 L1, 10 mM in plate media): Sterility
- F1 phenotype, PEAMT2 dsRNA [6, 12]: L1/L2 arrest/lethality
- rescue of PEAMT2 RNAi phenotype [6]: not
- rescue of PEAMT1 mutants (RNAi-generated) [7]: rescued
- rescue of sterility associated with PEAMT1 RNAi ([7]; Five mM): rescues the sterility
- F1 phenotype, PEAMT1 dsRNA ([7]; P0 Dauer, 10 mM in plate media): Fertile adults
- F1 phenotype, PEAMT1 dsRNA ([7]; P0 L1, 10 mM in plate media): Fertile adults
- F1 phenotype, PEAMT1 dsRNA [7, 12]: Fertile adults
- Km ([8]; 1 mM SAM, 0.05-10 mM DME, read-out: Km of DME for DIV3202H+ (PEAMT2H+; intact HIS tag)): 1.39 ± 0.26 µM

SMILES: CNCCO [MME, monomethylethanolamine]
- F1 phenotype, PEAMT2 dsRNA [6, 12]: L1/L2 arrest/lethality
- rescue of PEAMT2 RNAi phenotype [6]: not
- rescue of PEAMT1 mutants (RNAi-generated) [7]: rescued
- F1 phenotype, PEAMT1 dsRNA [7, 12]: Fertile adults
- suppression of PEAMT1 larval lethal RNAi phenotype [7]: suppressed
- Km ([8]; 1 mM SAM, 0.15-20 mM MME, read-out: Km of MME for DIV3202H+ (PEAMT2H+; intact HIS tag)): 2.1 ± 0.97 µM

SMILES: OCCNc1ccccc1 [N-(2-hydroxyethyl)aniline]
- F1 PHENOTYPE ([2]; 10 mM): L1/L2 arrest/lethality
- nematicidal activity against C. elegans [2]: showed nematicidal activity

SMILES: CCCCCC[C@@H](O)C/C=C\CCCCCCCC(=O)O [Ricinoleic acid]
- cytotoxicity [9]: cytotoxic
- effect on water and electrolyte absorption [10]: inhibitory effect

SMILES: C[S+](CC[C@H](N)C(=O)O)C[C@H]1O[C@@H](n2cnc3c(N)ncnc32)[C@H](O)[C@@H]1O (stereo partly drawn) [S-adenosyl-L-methionine]
- Km ([11]; read-out: Km of S-adenosyl-L-methionine for DIV3441H+ (PEAMT1H+; intact HIS tag)): 62.5 ± 9.68 µM
- Km ([11]; read-out: Km of S-adenosyl-L-methionine for DIV3441H− (PEAMT1H−; cleaved HIS tag)): 146 ± 31.1 µM
- Km ([8]; 10 mM DME, 0.004-3 mM SAM, read-out: Km of S-adenosyl-L-methionine for DIV3202H+ (PEAMT2H+; intact HIS tag)): 167 ± 34.6 µM
- Km ([8]; 30 mM MME, 0.004-3 mM SAM, read-out: Km of S-adenosyl-L-methionine for DIV3202H+ (PEAMT2H+; intact HIS tag)): 163 ± 42.4 µM

SMILES: NCCO [ethanolamine (EA), ethanolamine]
- F1 phenotype, PEAMT2 dsRNA ([6]; P0 L4, 10 mM in plate media): L1/L2 arrest/lethality
- rescue of PEAMT2 RNAi phenotype [6]: not
- F1 phenotype, PEAMT1 dsRNA ([7]; P0 L4, 10 mM in plate media): L1/L2 arrest/lethality
- suppression of PEAMT1 larval lethal RNAi phenotype [7]: not

SMILES: CCCCCC[C@@H](O)C/C=C\CCCCCCCC(=O)OC [methyl ester of ricinoleic acid]
- effect on water and electrolyte absorption [10]: ineffective
